From PMC11356819 (Molecules, 2024)
Read-outs that look alike come from different tables or passages of the source.

What was measured:
mIDH1R132H [1] = biological target: T1, mIDH1R132H (Homo sapiens, UniProt O75874, R132H); test: enzymatic inhibition assay with commercial IDH1 (R132H) kit; type: biochemical; settings: for Amax (fit parameter) / Amin (fit parameter) / Hill slope: Hill fit; for Amax (fit parameter) / Amin (fit parameter) / Hill slope / IC50: parentheses = 95% CI; for IC50: non-labeled compounds, n = 3, read-out: IC50 for suppression of mIDH1R132H
T1 construct: purchased BPS Bioscience, San Diego, CA, USA
T1 sequence (O75874 whole entry R132H): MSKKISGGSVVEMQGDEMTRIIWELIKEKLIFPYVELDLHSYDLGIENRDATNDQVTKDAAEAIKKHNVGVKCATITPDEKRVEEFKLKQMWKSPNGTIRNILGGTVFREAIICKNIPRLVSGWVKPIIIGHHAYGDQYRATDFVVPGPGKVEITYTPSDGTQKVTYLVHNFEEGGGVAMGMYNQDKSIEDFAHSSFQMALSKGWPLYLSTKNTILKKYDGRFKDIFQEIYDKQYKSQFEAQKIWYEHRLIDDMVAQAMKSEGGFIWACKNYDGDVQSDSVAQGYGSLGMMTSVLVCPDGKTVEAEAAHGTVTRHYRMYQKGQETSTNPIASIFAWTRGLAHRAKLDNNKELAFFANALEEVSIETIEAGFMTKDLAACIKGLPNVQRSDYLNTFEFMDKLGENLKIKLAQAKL
Experimental: The inhibitory activity of the candidate probes against mIDH1 was evaluated by enzymatic assays with serially diluted solutions of the non-labeled compounds using a commercially available assay kit (IDH1 (R132H) from BPS Bioscience, San Diego, CA, USA). IC50 values were determined with GraphPad Prism 4.00 by fitting the resulting dose-response curves with the Hill function.
Data are shown as mean ± standard deviation (n = 3). For additional fit parameters and 95% confidence intervals, see Table S12 in Section S4.1.4 of Supplementary Materials. TEXT PRINTED IN THE PICTURE: (S)-2: IC50 [nM]: 102 | (R)-2: IC50 [nM]: 1358 | 4: IC50 [nM]: 713 | 5: IC50 [nM]: 8279
4.1.4. Inhibitory potency (IC50)
Values in parenthesis indicate 95% confidence intervals.

[2] = stability of reference compounds in DMSO; type: physicochemical; settings: room temperature, at least 28 h, non-labeled reference compounds
Experimental: The in vitro stability of the radiolabeled probes was evaluated by incubation studies with phosphate-buffered saline (PBS) and rat serum.
A solution of the corresponding reference compound in DMSO (1 mg/mL) was incubated at room temperature for 28–30 h, during which aliquots were removed every few hours and analyzed by analytical HPLC. The fraction of intact reference compound at each time point was calculated by dividing the peak area of the reference compound by the total area of all peaks in the chromatogram and plotted as a function of time.

[3] = lipophilicity by shake-flask method (n-octanol/water or PBS); type: physicochemical; settings: triplicate; for logD: n-octanol/PBS pH 7.4, shake-flask, read-out: logD7.4 Exp. Determined; for logP: n-octanol/water, shake-flask
Experimental: As a measure for the lipophilicity of the four radiolabeled probes, their partition coefficients (logP) and distribution coefficients at pH 7.4 (logD7.4) were determined by the shake-flask method. Table 1 summarizes the results of these experiments and compares them with the predicted logD7.4 values calculated using the ADMETlab platform.
A solution of the corresponding radiotracer in DMSO (1 µL) was added to a mixture of n-octanol and PBS (pH = 7.4) or water (750 µL of each) in a 2 mL Eppendorf vial and the vial was vortexed for 2 min and centrifuged for another 2 min to separate the two phases. A total of 300 µL of the upper n-octanol phase was then carefully removed from the top, while 300 µL of the aqueous phase was removed by piercing the bottom of the vial with a syringe and cannula to avoid contact with the organic phase. Both fractions were transferred into fresh vials and counted in a gamma counter to determine the ratio between the activity in the organic and the aqueous phase. All measurements were performed in triplicate and the results are expressed as mean ± standard deviation of the logarithm of the partition coefficient between n-octanol and water (logP) or the logarithm of the distribution coefficient between n-octanol and PBS (logD7.4), respectively.

U87-mIDH cells = test: cellular uptake in U87-mIDH cells; type: cell-based, human; settings: U87-mIDH cells; for cellular uptake: incubation 1 h
Experimental: (§1) Consistent with this assumption, uptake of [^18F]4 and, to a lesser extent, the ^18F-fluoroethoxylated analog [^18F]5 by both cell lines was considerably higher than that of (S)-[^18F]2.
(§2) Human glioblastoma cells with a c.395G>A knock-in mutation encoding mIDH1R132H (HTB-14IG™) and the corresponding wildtype cells (HTB-14™) were purchased from the American Type Culture Collection (ATCC). The cells were grown under standard culture conditions (5% CO2 and 95% air at 37 °C) in Eagle’s Minimum Essential Medium (MEM) supplemented with 10% fetal bovine serum (FBS) and antibiotics (penicillin–streptomycin mixed solution, Gibco, Thermo Fisher Scientific, Oberhausen, Germany).
(§3) For the cellular uptake studies, 1.5 × 10^5 cells were seeded into gelatin-coated 12-well transwell plates and incubated in 1 mL MEM (without FBS and antibiotics) containing 18.5 kBq (0.5 µCi) of the corresponding radiotracer. After incubation at 21 °C for 1 h, the supernatant was collected, the cells were lysed with 40 mM NaOH and the radioactivity of both fractions was measured with a gamma counter. The total protein concentration of the cell lysate was measured by a bicinchoninic acid (BCA) assay. The radiotracer uptake was calculated as the ratio of radioactivity in the cell fraction and the supernatant and normalized by protein content (% uptake/100 µg protein). Statistical analysis of the results was performed with Originlab Pro 2023b using two-tailed t-tests with a significance level of 0.05 to identify significant differences between groups.

U87-WT cells = test: cellular uptake in U87-WT cells; type: cell-based, human; settings: incubation 1 h
Experimental: as §1, §2, §3

mIDH1R132H [4] = biological target: T1, mIDH1R132H; settings: cited from earlier work

Row | Compound | Amax (fit parameter) (mIDH1R132H [1]) | Amin (fit parameter) (mIDH1R132H [1]) | Hill slope (mIDH1R132H [1]) | IC50 (mIDH1R132H [1]) [nM] | decomposition in DMSO [2] | logD [3] | cellular uptake (U87-mIDH cells) [% per 100 µg protein] | other results
1 | N#Cc1ccc(NCc2cc3cc(F)ccc3[nH]c2=O)cc1OCCF [compound 5, 4-(((6-Fluoro-2-oxo-1,2-dihydroquinolin-3-yl)methyl)amino)-2-(2-fluoroethoxy)benzonitrile] | 41 (36−45) % | 3 (2−3) % | 2.1 (1.6−2.7) | 8280 | less than 10% |  |  | 
2 | N#Cc1ccc(NCc2cc3cc(F)ccc3[nH]c2=O)cc1OCC[18F] [[^18F]5] |  |  |  |  |  | 2.72 ± 0.06 | 3.2 ± 0.6 | logP ([3]; read-out: logP): 2.77 ± 0.03; cellular uptake (U87-WT cells): 3.7 ± 0.6 % per 100 µg protein
3 | COc1cc(NCc2cc3cc(F)ccc3[nH]c2=O)ccc1C#N [compound 4, 4-{[(6-Fluoro-2-oxo-1,2-dihydroquinolin-3-yl)methyl]amino}-2-methoxybenzonitrile] | 98 (96−100) % | 1.8 (0.6−3.0) % | 2.8 (2.5−3.0) | 713 | less than 10% |  |  | fold lower potency than (S)-2 in functional assays (mIDH1R132H [1]): roughly 7 fold
4 | CC(Nc1ccc(C#N)n(C)c1=O)c1cc2cc(F)ccc2[nH]c1=O (centres unmarked) [mIDH-23] |  |  |  |  |  |  |  | IC50 (mIDH1R132H [4]; biochemical assays, read-out: IC50 (reported potency for inhibition of mIDH1R132H)): 23 nM; Selectivity (ratio of biochemical IC50 values for mIDH1R132H and the wildtype enzyme) (mIDH1R132H [4]): > 400
5 | COc1cc(NCc2cc3cc(Cl)ccc3[nH]c2=O)ccc1C#N [compound 3] |  |  |  |  |  |  |  | Selectivity (ratio of biochemical IC50 values for mIDH1R132H and the wildtype enzyme) (mIDH1R132H [4]): > 700

Now from value to molecule, other results behind:

Row | Amax (fit parameter) (mIDH1R132H [1]) | Amin (fit parameter) (mIDH1R132H [1]) | Hill slope (mIDH1R132H [1]) | IC50 (mIDH1R132H [1]) [nM] | decomposition in DMSO [2] | logD [3] | Compound | cellular uptake (U87-mIDH cells) [% per 100 µg protein] | other results
6 |  |  |  |  |  | 2.51 ± 0.11 | C[C@@H](Nc1ccc(C#N)n(C)c1=O)c1cc2cc([18F])ccc2[nH]c1=O [(R)-[^18F]2] | 0.5 ± 0.1 | logP [3]: negative
7 | 79 (72−87) % | 28 (25−31) % | 3.0 (1.3−4.8) | 1360 |  |  | C[C@@H](Nc1ccc(C#N)n(C)c1=O)c1cc2cc(F)ccc2[nH]c1=O [(R)-2, (R)-5-[{1-(6-Fluoro-2-oxo-1,2-dihydroquinoline-3-yl)ethyl}amino]-1-methyl-6-oxo-1,6-dihydropyridine-2-carbonitrile] |  | fold higher IC50 value relative to (S)-enantiomer (mIDH1R132H [1]): > 10 fold
8 |  |  |  |  |  | 2.51 ± 0.11 | C[C@H](Nc1ccc(C#N)n(C)c1=O)c1cc2cc([18F])ccc2[nH]c1=O [(S)-[^18F]2] | 0.9 ± 0.2 | fold higher cellular uptake than (R)-[^18F]2 (U87-mIDH cells): approx. 2 fold; cellular uptake (U87-WT cells): 1.2 ± 0.7 % per 100 µg protein
9 | 95 (93−97) % | 33 (30−35) % | 5.6 (4.0−7.2) | 102 | no decomposition |  | C[C@H](Nc1ccc(C#N)n(C)c1=O)c1cc2cc(F)ccc2[nH]c1=O [(S)-2, (S)-5-[{1-(6-Fluoro-2-oxo-1,2-dihydroquinoline-3-yl)ethyl}amino]-1-methyl-6-oxo-1,6-dihydropyridine-2-carbonitrile] |  | 
